Measurements from patent publication US11078170B2 (Assembly Biosciences, Inc., priority 2017, dated 2021).

Each molecule was assayed on HBV viral production from HepAD38 cells (assay: Activity of test compounds on viral production from HepAD38 cells (viral load by qPCR of HBV core sequence in supernatant)). Conditions: Hepatitis B virus, 120 h, 5 days incubation, HBV DNA in supernatant by qPCR, top concentration 10 μM, read-out: Viral Load EC50 Activity range.
Format: cell-based
In short: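 HepAD38 cells, 50,000/well in tetracycline-free 2% FBS medium, treated 5 days at 37° C. with compound from 10 μM top concentration. HBV DNA in supernatant quantified by TaqMan qPCR of core sequence against DNA standards, relative to DMSO wells; CellTiter-Glo viability read in parallel. EC50/CC50 from four-parameter logistic fit.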
For `O=C(Nc1ccc(F)c(Cl)c1)[C@H]1C[C@@H](c2nccs2)NS(=O)(=O)N1` [HBV-CSU-096-ISO-I, Cis-N-(3-Chloro-4-fluorophenyl)-5-(thiazol-2-yl)-1,2,6-thiadiazinane-3-carboxamide 1,1-dioxide], the EC50 was over 5000 nM.
`CN1[C@H](C(=O)Nc2ccc(F)c(Cl)c2)C[C@H](c2ccc(C(N)=O)cc2)NS1(=O)=O` [HBV-CSU-214-ISO-II, Cis-5-(4-Carbamoylphenyl)-N-(3-chloro-4-fluorophenyl)-2-methyl-1,2,6-thiadiazinane-3-carboxamide 1,1-dioxide] gave an EC50 of under 1000 nM.
In the case of `O=C(Nc1ccc(F)c(Cl)c1)[C@H]1C[C@@H](c2nccs2)NS(=O)(=O)N1CCOCc1ccccc1` (relative stereo) [HBV-CSU-095-ISO-I, Cis-2-(2-(benzyloxy)ethyl)-N-(3-chloro-4-fluorophenyl)-5-(thiazol-2-yl)-1,2,6-thiadiazinane-3-carboxamide 1,1-dioxide], the EC50 is reported as 1000 to 5000 nM.
`CN1[C@@H](C(=O)Nc2ccc(F)c(Cl)c2)C[C@@H](c2ncc(-c3ccnn3C)s2)NS1(=O)=O` [HBV-CSU-281-ISO-II, Cis-N-(3-Chloro-4-fluorophenyl)-2-methyl-5-(5-(1-methyl-1H-pyrazol-5-yl)thiazol-2-yl)-1,2,6-thiadiazinane-3-carboxamide 1,1-dioxide] showed an EC50 of 1000 to 5000 nM.
Work on `Cc1nn(C)c(C)c1-c1ccc([C@@H]2C[C@H](C(=O)Nc3ccc(F)c(Cl)c3)N(C)S(=O)(=O)N2)s1` [HBV-CSU-314-ISO-II, Cis-N-(3-chloro-4-fluorophenyl)-2-methyl-5-(5-(1,3,5-trimethyl-1H-pyrazol-4-yl)thiophen-2-yl)-1,2,6-thiadiazinane-3-carboxamide 1,1-dioxide] yielded an EC50 of 1000 to 5000 nM.
Molecule `COC(C)(C)CCN1C(C(=O)Nc2ccc(F)c(Cl)c2)CC(c2nccs2)NS1(=O)=O` (racemic) [HBV-CSU-083, Cis-N-(3-Chloro-4-fluorophenyl)-2-(3-methoxy-3-methylbutyl)-5-(thiazol-2-yl)-1,2,6-thiadiazinane-3-carboxamide 1,1-dioxide] has an EC50 of over 5000 nM.
`CN1[C@H](C(=O)Nc2ccc(F)c(Cl)c2)C[C@H](c2ccc(-c3cnn(C(F)(F)F)c3)s2)NS1(=O)=O` [HBV-CSU-321-ISO-I, Cis-N-(3-Chloro-4-fluorophenyl)-2-methyl-5-(5-(1-(trifluoromethyl)-1H-pyrazol-4-yl)thiophen-2-yl)-1,2,6-thiadiazinane-3-carboxamide 1,1-dioxide] was tested, and the EC50 was under 1000 nM.
`CN1[C@H](C(=O)Nc2ccc(F)c(Cl)c2)C[C@H](c2ncc(-c3ccccn3)s2)NS1(=O)=O` [HBV-CSU-176-ISO-I, Cis-N-(3-chloro-4-fluorophenyl)-2-methyl-5-(5-(pyridin-2-yl)thiazol-2-yl)-1,2,6-thiadiazinane-3-carboxamide 1,1-dioxide] gave an EC50 of under 1000 nM.
Work on `COC(=O)c1ccc(C2CC(C(=O)Nc3ccc(F)c(Cl)c3)N(C)S(=O)(=O)N2)cc1` (stereo not drawn) [HBV-CSU-256, Cis-methyl 4-(5-((3-chloro-4-fluorophenyl)carbamoyl)-6-methyl-1,1-dioxido-1,2,6-thiadiazinan-3-yl)benzoate] yielded an EC50 of 1000 to 5000 nM.
Work on `CN1C(C(=O)Nc2ccc(F)c(Cl)c2)CC(C2CCCC2)NS1(=O)=O` (racemic) [HBV-CSU-222, Cis-N-(3-chloro-4-fluorophenyl)-5-cyclopentyl-2-methyl-1,2,6-thiadiazinane-3-carboxamide 1,1-dioxide] yielded an EC50 of under 1000 nM.
`CN1[C@@H](C(=O)Nc2ccc(F)c(Cl)c2)C[C@@H](c2cc(-c3ccccc3)cs2)NS1(=O)=O` [HBV-CSU-148-ISO-II, Cis-N-(3-chloro-4-fluorophenyl)-2-methyl-5-(4-phenylthiophen-2-yl)-1,2,6-thiadiazinane-3-carboxamide 1,1-dioxide] was tested, and the EC50 was 1000 to 5000 nM.
Work on `CN1C(C(=O)Nc2ccc(F)c(Cl)c2)CC(c2cccc(-c3cnn(C)c3)c2)NS1(=O)=O` (racemic) [HBV-CSU-247, Cis-N-(3-chloro-4-fluorophenyl)-2-methyl-5-(3-(1-methyl-1H-pyrazol-4-yl)phenyl)-1,2,6-thiadiazinane-3-carboxamide 1,1-dioxide] yielded an EC50 of under 1000 nM.
For `CCn1cc(-c2csc([C@@H]3C[C@H](C(=O)Nc4ccc(F)c(Cl)c4)N(C)S(=O)(=O)N3)c2)cn1` [HBV-CSU-294-ISO-II, Cis-N-(3-chloro-4-fluorophenyl)-5-(4-(1-ethyl-1H-pyrazol-4-yl)thiophen-2-yl)-2-methyl-1,2,6-thiadiazinane-3-carboxamide 1,1-dioxide], the EC50 was 1000 to 5000 nM.
In the case of `CN1[C@@H](C(=O)Nc2ccc(F)c(Cl)c2)C[C@@H](c2cc(-c3cccnc3)cs2)NS1(=O)=O` [HBV-CSU-167-ISO-II, Cis-N-(3-chloro-4-fluorophenyl)-2-methyl-5-(4-(pyridin-3-yl)thiophen-2-yl)-1,2,6-thiadiazinane-3-carboxamide 1,1-dioxide], the EC50 is reported as over 5000 nM.
In the case of `CN1C(C(=O)Nc2ccc(F)c(Cl)c2)CC(c2cc(-c3ccc(F)cn3)cs2)NS1(=O)=O` (racemic) [HBV-CSU-243, Cis-N-(3-chloro-4-fluorophenyl)-5-(4-(5-fluoropyridin-2-yl)thiophen-2-yl)-2-methyl-1,2,6-thiadiazinane-3-carboxamide 1,1-dioxide], the EC50 is reported as under 1000 nM.
Molecule `CN1C(C(=O)Nc2ccccc2)CC(c2cccs2)NS1(=O)=O` (stereo not drawn) [HBV-CSU-006, Cis-2-Methyl-N-phenyl-5-(thiophen-2-yl)-1,2,6-thiadiazinane-3-carboxamide 1,1-dioxide] has an EC50 of under 1000 nM.
`CN1C(C(=O)Nc2ccc(F)c(Cl)c2)CC(c2ccc(O)cc2)NS1(=O)=O` (stereo not drawn) [HBV-CSU-201, Cis-N-(3-Chloro-4-fluorophenyl)-5-(4-hydroxyphenyl)-2-methyl-1,2,6-thiadiazinane-3-carboxamide 1,1-dioxide] was tested, and the EC50 was under 1000 nM.
Molecule `[2H]C([2H])([2H])N1[C@H](C(=O)Nc2ccc(F)c(Cl)c2)C[C@H](c2ncc(-c3cn(C)cn3)s2)NS1(=O)=O` [HBV-CSU-338-ISO-I, Cis-N-(3-Chloro-4-fluorophenyl)-2-(methyl-d3)-5-(5-(1-methyl-1H-imidazol-4-yl)thiazol-2-yl)-1,2,6-thiadiazinane-3-carboxamide 1,1-dioxide] has an EC50 of under 1000 nM.
With `Cc1c(-c2ccc([C@@H]3C[C@H](C(=O)Nc4ccc(F)c(Cl)c4)N(C)S(=O)(=O)N3)s2)cnn1C` [HBV-CSU-312-ISO-II, Cis-N-(3-chloro-4-fluorophenyl)-5-(5-(1,5-dimethyl-1H-pyrazol-4-yl)thiophen-2-yl)-2-methyl-1,2,6-thiadiazinane-3-carboxamide 1,1-dioxide] the EC50 was 1000 to 5000 nM.
`CC(C)n1cc(-c2csc([C@@H]3C[C@H](C(=O)Nc4ccc(F)c(Cl)c4)N(C)S(=O)(=O)N3)c2)cn1` [HBV-CSU-295-ISO-II, Cis-N-(3-chloro-4-fluorophenyl)-5-(4-(1-isopropyl-1H-pyrazol-4-yl)thiophen-2-yl)-2-methyl-1,2,6-thiadiazinane-3-carboxamide 1,1-dioxide] gave an EC50 of 1000 to 5000 nM.
With `CN1[C@H](C(=O)Nc2ccc(F)c(Cl)c2)C[C@H](c2cccc(Cl)c2)NS1(=O)=O` [HBV-CSU-261-ISO-I, Cis-N-(3-Chloro-4-fluorophenyl)-5-(3-chlorophenyl)-2-methyl-1,2,6-thiadiazinane-3-carboxamide 1,1-dioxide] the EC50 was under 1000 nM.
`CN1C(C(=O)Nc2ccc(F)c(Cl)c2)CC(c2cnc(C(F)(F)F)s2)NS1(=O)=O` (stereo not drawn) [HBV-CSU-226, Cis-N-(3-chloro-4-fluorophenyl)-2-methyl-5-(2-(trifluoromethyl)thiazol-5-yl)-1,2,6-thiadiazinane-3-carboxamide 1,1-dioxide] showed an EC50 of 1000 to 5000 nM.
`CN1C(C(=O)Nc2ccc(F)c(Cl)c2)CC(c2ccc(-c3ncn(C)n3)s2)NS1(=O)=O` (racemic) [HBV-CSU-322, Cis-N-(3-Chloro-4-fluorophenyl)-2-methyl-5-(5-(1-methyl-1H-1,2,4-triazol-3-yl)thiophen-2-yl)-1,2,6-thiadiazinane-3-carboxamide 1,1-dioxide] gave an EC50 of under 1000 nM.
`CN1[C@@H](C(=O)Nc2ccc(F)c(Cl)c2)C[C@@H](c2ccc(-c3ccnn3C)s2)NS1(=O)=O` [HBV-CSU-271-ISO-II, Cis-N-(3-chloro-4-fluorophenyl)-2-methyl-5-(5-(1-methyl-1H-pyrazol-5-yl)thiophen-2-yl)-1,2,6-thiadiazinane-3-carboxamide 1,1-dioxide] gave an EC50 of 1000 to 5000 nM.
`O=C(Nc1ccc(F)c(Cl)c1)[C@H]1C[C@@H](c2nccs2)NS(=O)(=O)N1CCc1c[nH]nn1` [HBV-CSU-092-ISO-II, Cis-2-(2-(1H-1,2,3-Triazol-4-yl)ethyl)-N-(3-chloro-4-fluorophenyl)-5-(thiazol-2-yl)-1,2,6-thiadiazinane-3-carboxamide 1,1-dioxide] was tested, and the EC50 was over 5000 nM.
`CN1C(C(=O)Nc2ccc(F)c(Cl)c2)CC(c2ccc(-c3ccc(F)cn3)s2)NS1(=O)=O` (racemic) [HBV-CSU-242, Cis-N-(3-chloro-4-fluorophenyl)-5-(5-(5-fluoropyridin-2-yl)thiophen-2-yl)-2-methyl-1,2,6-thiadiazinane-3-carboxamide 1,1-dioxide] showed an EC50 of under 1000 nM.
In the case of `CN1[C@H](C(=O)Nc2ccc(F)c(Cl)c2)C[C@H](c2ccc(-c3cccs3)s2)NS1(=O)=O` [HBV-CSU-162-ISO-I, Cis-N-5-([2,2′-bithiophen]-5-yl)-N-(3-chloro-4-fluorophenyl)-2-methyl-1,2,6-thiadiazinane-3-carboxamide 1,1-dioxide], the EC50 is reported as under 1000 nM.
For `CC(C)(C)OCCN1[C@H](C(=O)Nc2ccc(F)c(Cl)c2)C[C@H](c2nccs2)NS1(=O)=O` [HBV-CSU-071-ISO-I, Cis-2-(2-(tert-Butoxy)ethyl)-N-(3-chloro-4-fluorophenyl)-5-(thiazol-2-yl)-1,2,6-thiadiazinane-3-carboxamide 1,1-dioxide], the EC50 was under 1000 nM.
For `CN1[C@@H](C(=O)Nc2ccc(F)c(Cl)c2)C[C@@H](c2ccnn2C)NS1(=O)=O` [HBV-CSU-054-ISO-I, Cis-N-(3-Chloro-4-fluorophenyl)-2-methyl-5-(1-methyl-1H-pyrazol-5-yl)-1,2,6-thiadiazinane-3-carboxamide 1,1-dioxide], the EC50 was over 5000 nM.
